Activity calls are given as the source filed them. No rule for the calls is given here.
Test system: CCRIS mutagenicity, Ames/micronucleus/aberration tests
Test: CCRIS mutagenicity studies
[1] = Test System: AMES SALMONELLA TYPHIMURIUM, Strain/Indicator: TA98, Metabolic Activation: NONE, Method: PREINCUBATION
[2] = Test System: AMES SALMONELLA TYPHIMURIUM, Strain/Indicator: TA100, Metabolic Activation: NONE, Method: PREINCUBATION
[3] = Test System: AMES SALMONELLA TYPHIMURIUM, Strain/Indicator: TA100, Metabolic Activation: NONE, Method: STANDARD PLATE
[4] = Test System: AMES SALMONELLA TYPHIMURIUM, Strain/Indicator: TA100, Metabolic Activation: RAT, LIVER, S-9, AROCLOR 1254, Method: STANDARD PLATE

Measured: mutagenic call

O=[N+]([O-])c1cccc(CO)c1
inactive: [1] inactive; negative | [2] inactive; negative | Test System: AMES SALMONELLA TYPHIMURIUM, Strain/Indicator: TA100, Metabolic Activation: RAT, LIVER, S-9, AROCLOR 1254, Method: PREINCUBATION inactive; negative

Cc1ccc2cc3c(ccc4ccccc43)c3c2c1CC3OS(=O)(=O)O (stereo unspecified)
active: [1] active; positive | [2] active; positive

CC(C)(C)S(=O)(=O)C[C@@H](Cc1ccccc1)C(=O)N[C@@H](Cc1cnc[nH]1)C(=O)N[C@@H](CC1CCCCC1)[C@@H](O)[C@@H](O)C1CC1
inactive: Test System: AMES SALMONELLA TYPHIMURIUM, Strain/Indicator: TA97, Metabolic Activation: NONE, Method: PREINCUBATION inactive; negative | Test System: AMES SALMONELLA TYPHIMURIUM, Strain/Indicator: TA97, Metabolic Activation: NONE, Method: STANDARD PLATE inactive; negative | Test System: AMES SALMONELLA TYPHIMURIUM, Strain/Indicator: TA97, Metabolic Activation: RAT, LIVER, S-9, PHENOBARBITAL AND BETA-NAPHTHOFLAVONE, Method: PREINCUBATION inactive; negative | Test System: AMES SALMONELLA TYPHIMURIUM, Strain/Indicator: TA97, Metabolic Activation: RAT, LIVER, S-9, PHENOBARBITAL AND BETA-NAPHTHOFLAVONE, Method: STANDARD PLATE inactive; negative | [1] inactive; negative | Test System: AMES SALMONELLA TYPHIMURIUM, Strain/Indicator: TA98, Metabolic Activation: NONE, Method: STANDARD PLATE inactive; negative | Test System: AMES SALMONELLA TYPHIMURIUM, Strain/Indicator: TA98, Metabolic Activation: RAT, LIVER, S-9, PHENOBARBITAL AND BETA-NAPHTHOFLAVONE, Method: PREINCUBATION inactive; negative | Test System: AMES SALMONELLA TYPHIMURIUM, Strain/Indicator: TA98, Metabolic Activation: RAT, LIVER, S-9, PHENOBARBITAL AND BETA-NAPHTHOFLAVONE, Method: STANDARD PLATE inactive; negative | [2] inactive; negative | [3] inactive; negative | Test System: AMES SALMONELLA TYPHIMURIUM, Strain/Indicator: TA100, Metabolic Activation: RAT, LIVER, S-9, PHENOBARBITAL AND BETA-NAPHTHOFLAVONE, Method: PREINCUBATION inactive; negative | Test System: AMES SALMONELLA TYPHIMURIUM, Strain/Indicator: TA100, Metabolic Activation: RAT, LIVER, S-9, PHENOBARBITAL AND BETA-NAPHTHOFLAVONE, Method: STANDARD PLATE inactive; negative | Test System: AMES SALMONELLA TYPHIMURIUM, Strain/Indicator: TA102, Metabolic Activation: NONE, Method: PREINCUBATION inactive; negative | Test System: AMES SALMONELLA TYPHIMURIUM, Strain/Indicator: TA102, Metabolic Activation: NONE, Method: STANDARD PLATE inactive; negative | Test System: AMES SALMONELLA TYPHIMURIUM, Strain/Indicator: TA102, Metabolic Activation: RAT, LIVER, S-9, PHENOBARBITAL AND BETA-NAPHTHOFLAVONE, Method: PREINCUBATION inactive; negative | Test System: AMES SALMONELLA TYPHIMURIUM, Strain/Indicator: TA102, Metabolic Activation: RAT, LIVER, S-9, PHENOBARBITAL AND BETA-NAPHTHOFLAVONE, Method: STANDARD PLATE inactive; negative | Test System: AMES SALMONELLA TYPHIMURIUM, Strain/Indicator: TA1535, Metabolic Activation: NONE, Method: PREINCUBATION inactive; negative | Test System: AMES SALMONELLA TYPHIMURIUM, Strain/Indicator: TA1535, Metabolic Activation: NONE, Method: STANDARD PLATE inactive; negative | Test System: AMES SALMONELLA TYPHIMURIUM, Strain/Indicator: TA1535, Metabolic Activation: RAT, LIVER, S-9, PHENOBARBITAL AND BETA-NAPHTHOFLAVONE, Method: PREINCUBATION inactive; negative | Test System: AMES SALMONELLA TYPHIMURIUM, Strain/Indicator: TA1535, Metabolic Activation: RAT, LIVER, S-9, PHENOBARBITAL AND BETA-NAPHTHOFLAVONE, Method: STANDARD PLATE inactive; negative | Test System: AMES SALMONELLA TYPHIMURIUM, Strain/Indicator: TA1537, Metabolic Activation: NONE, Method: PREINCUBATION inactive; negative | Test System: AMES SALMONELLA TYPHIMURIUM, Strain/Indicator: TA1537, Metabolic Activation: NONE, Method: STANDARD PLATE inactive; negative | Test System: AMES SALMONELLA TYPHIMURIUM, Strain/Indicator: TA1537, Metabolic Activation: RAT, LIVER, S-9, PHENOBARBITAL AND BETA-NAPHTHOFLAVONE, Method: PREINCUBATION inactive; negative | Test System: AMES SALMONELLA TYPHIMURIUM, Strain/Indicator: TA1537, Metabolic Activation: RAT, LIVER, S-9, PHENOBARBITAL AND BETA-NAPHTHOFLAVONE, Method: STANDARD PLATE inactive; negative | Test System: AMES SALMONELLA TYPHIMURIUM, Strain/Indicator: TA1538, Metabolic Activation: NONE, Method: PREINCUBATION inactive; negative | Test System: AMES SALMONELLA TYPHIMURIUM, Strain/Indicator: TA1538, Metabolic Activation: NONE, Method: STANDARD PLATE inactive; negative | Test System: AMES SALMONELLA TYPHIMURIUM, Strain/Indicator: TA1538, Metabolic Activation: RAT, LIVER, S-9, PHENOBARBITAL AND BETA-NAPHTHOFLAVONE, Method: PREINCUBATION inactive; negative | Test System: AMES SALMONELLA TYPHIMURIUM, Strain/Indicator: TA1538, Metabolic Activation: RAT, LIVER, S-9, PHENOBARBITAL AND BETA-NAPHTHOFLAVONE, Method: STANDARD PLATE inactive; negative

O=[N+]([O-])c1cnc(CO)n1CCO
active: [3] active; positive | [4] active; positive

OC1C2OC2c2cccc3c2C1(O)c1ccccc1-3 (stereo unspecified)
inactive: Test System: AMES SALMONELLA TYPHIMURIUM, Strain/Indicator: TM677, Metabolic Activation: NONE, Method: PREINCUBATION inactive; negative | Test System: AMES SALMONELLA TYPHIMURIUM, Strain/Indicator: TM677, Metabolic Activation: RAT, LIVER, POSTMITOCHONDRIAL SUPERNATANT, AROCLOR 1254, Method: PREINCUBATION inactive; negative

COC(=O)C(C)=Cc1ccc([N+](=O)[O-])o1
active: [1] active; positive

N[C@H](CSSC[C@@H](N)C(=O)O)C(=O)O
active: Test System: AMES SALMONELLA TYPHIMURIUM, Strain/Indicator: TA98, Metabolic Activation: RAT LIVER S-9, CHLOROPHENE, Method: STANDARD PLATE (COMPOUND HEATED AT 250 DEGREES CELSIUS FOR 20 MIN) active; positive

C=CC(=O)OCC (tested in a mixture with another compound)
active: [4] active; positive | Test System: AMES SALMONELLA TYPHIMURIUM, Strain/Indicator: TA1535, Metabolic Activation: RAT, LIVER, S-9, AROCLOR 1254, Method: STANDARD PLATE active; positive
inactive: Test System: AMES SALMONELLA TYPHIMURIUM, Strain/Indicator: TA1538, Metabolic Activation: RAT, LIVER, S-9, AROCLOR 1254, Method: STANDARD PLATE inactive; negative

O=Nc1c(O)ccc2ccccc12
inactive: [1] inactive; negative

COc1cccc2c1C(=O)c1c(O)c3c(c(O)c1C2=O)CC(O)(C(=O)CO)CC3OC1CC(N2CCOCC2C#N)C(O)C(C)O1 (stereo unspecified)
active: Test System: CHINESE HAMSTER V-79, Strain/Indicator: V-79/8-AZAGUANINE, Metabolic Activation: NONE active; positive | Test System: UDS RAT HEPATOCYTES, Strain/Indicator: THY INCORP, Metabolic Activation: NONE, Method: AUTOMATIC COLONY COUNTER active; positive
inactive: Test System: AMES SALMONELLA TYPHIMURIUM, Strain/Indicator: TA100, Metabolic Activation: RAT, LIVER, S-9, AROCLOR 1254 inactive; negative
